Experimental data from US7507730B2, “Substituted pyrazolo[1,5-a]pyrimidines as potassium channel activators” (Bristol-Myers Squibb Company, priority 2005, dated 2009).

Target: Kv1.5 (Homo sapiens, UniProt P22460)
Assay: Kv1.5 inhibition assay (IKur inhibitor assay per cited references)
Type: cell-based
Details: for inhibition at 0.3 µM / Kv1.5% inhibition: at 0.3 μM
Source text: Assays to determine the degree of activity of a compound as an IKur inhibitor are well known in the art and are described in references such as J. Gen. Physiol. Apr.; 101 (4):513-43, and Br. J. Pharmacol. 1995 May; 115(2):267-74.

Sequence of Kv1.5 (P22460 whole entry): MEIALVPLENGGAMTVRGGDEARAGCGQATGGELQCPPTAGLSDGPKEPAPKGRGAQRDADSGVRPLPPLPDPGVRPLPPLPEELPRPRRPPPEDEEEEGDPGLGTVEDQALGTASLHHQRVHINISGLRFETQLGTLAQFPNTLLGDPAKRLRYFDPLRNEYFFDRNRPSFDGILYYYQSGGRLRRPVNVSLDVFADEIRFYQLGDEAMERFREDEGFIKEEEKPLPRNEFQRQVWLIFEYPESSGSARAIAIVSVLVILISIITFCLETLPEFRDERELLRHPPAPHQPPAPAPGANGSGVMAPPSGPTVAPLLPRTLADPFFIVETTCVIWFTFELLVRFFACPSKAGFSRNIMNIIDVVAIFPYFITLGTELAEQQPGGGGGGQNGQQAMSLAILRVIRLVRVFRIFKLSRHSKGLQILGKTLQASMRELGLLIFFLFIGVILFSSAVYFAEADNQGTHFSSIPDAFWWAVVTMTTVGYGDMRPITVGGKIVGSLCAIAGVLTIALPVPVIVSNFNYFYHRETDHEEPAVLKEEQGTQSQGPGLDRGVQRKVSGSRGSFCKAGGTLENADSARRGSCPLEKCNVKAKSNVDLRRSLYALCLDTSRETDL

SMILES	inhibition at 0.3 µM [%]	Kv1.5% inhibition [%]	further results
CCN(CC)S(=O)(=O)C1=C(C)Nc2cc(C(F)(F)F)nn2C1c1ccc(Cl)c(Cl)c1 (single isomer, unassigned) [Example 64 Isomer 1, 7-(3,4-Dichlorophenyl)-N,N-diethyl-5-methyl-2-(trifluoromethyl)-4,7-dihydropyrazolo[1,5-a]pyrimidine-6-sulfonamide]	76.2	–	–
CCN(CC)S(=O)(=O)C1=C(C)Nc2cc(C(F)(F)F)nn2C1c1ccc(Cl)c(Cl)c1 (single isomer, unassigned) [Example 64 Isomer 2, 7-(3,4-Dichlorophenyl)-N,N-diethyl-5-methyl-2-(trifluoromethyl)-4,7-dihydropyrazolo[1,5-a]pyrimidine-6-sulfonamide]	–	60	–
CC1=C(S(=O)(=O)N2CCCCC2)C(c2ccc(Cl)c(Cl)c2)n2nc(C(F)(F)F)cc2N1 (single isomer, unassigned) [Example 65 Isomer 1, 7-(3,4-Dichlorophenyl)-5-methyl-6-(piperidin-1-ylsulfonyl)-2-(trifluoromethyl)-4,7-dihydropyrazolo[1,5-a]pyrimidine]	81	–	–
CC1=C(S(=O)(=O)N2CCOCC2)C(c2ccc(Cl)c(Cl)c2)n2nc(C(F)(F)F)cc2N1 (single isomer, unassigned) [Example 66 Isomer 1, 7-(3,4-Dichlorophenyl)-5-methyl-6-(morpholinosulfonyl)-2-(trifluoromethyl)-4,7-dihydropyrazolo[1,5-a]pyrimidine]	51	–	–
CC1=C(S(=O)(=O)N2CCOCC2)C(c2ccc(Cl)c(Cl)c2)n2nc(C(F)(F)F)cc2N1 (single isomer, unassigned) [Example 66 Isomer 2, 7-(3,4-Dichlorophenyl)-5-methyl-6-(morpholinosulfonyl)-2-(trifluoromethyl)-4,7-dihydropyrazolo[1,5-a]pyrimidine]	–	49	–
CC1=C(S(=O)(=O)N2CCCC2)C(c2ccc(Cl)cc2)n2nc(C(F)(F)F)cc2N1 (single isomer, unassigned) [Example 67 Isomer 1, 7-(4-Chlorophenyl)-5-methyl-6-(pyrrolidin-1-ylsulfonyl)-2-(trifluoromethyl)-4,7-dihydropyrazolo[1,5-a]pyrimidine]	60	–	–
CC1=C(S(=O)(=O)N2CCCC2)C(c2ccc(Cl)cc2)n2nc(C(F)(F)F)cc2N1 (single isomer, unassigned) [Example 67 Isomer 2, 7-(4-Chlorophenyl)-5-methyl-6-(pyrrolidin-1-ylsulfonyl)-2-(trifluoromethyl)-4,7-dihydropyrazolo[1,5-a]pyrimidine]	–	54	–
COc1ccc(S(=O)(=O)N(C)C(=O)C2=C(C)Nc3cc(C)nn3C2c2ccc(Cl)c(Cl)c2)cc1 (single isomer, unassigned) [Example 81 Isomer 1, 7-(3,4-Dichlorophenyl)-N-(4-methoxyphenylsulfonyl)-N,2,5-trimethyl-4,7-dihydropyrazolo[1,5-a]pyrimidine-6-carboxamide]	16	–	–
COc1ccc(S(=O)(=O)N(C)C(=O)C2=C(C)Nc3cc(C)nn3C2c2ccc(Cl)c(Cl)c2)cc1 (single isomer, unassigned) [Example 81 Isomer 2, 7-(3,4-Dichlorophenyl)-N-(4-methoxyphenylsulfonyl)-N,2,5-trimethyl-4,7-dihydropyrazolo[1,5-a]pyrimidine-6-carboxamide]	–	–	IC50 (given as % inhibition, value given as a concentration in μM, read-out: Kv1.5% inhibition): 0.098 µM
CC1=C(C(=O)N2CCCCS2(=O)=O)C(c2ccc(Cl)c(Cl)c2)n2nc(C)cc2N1 (single isomer, unassigned) [Example 84 Isomer 1]	–	19	–
CC1=C(C(=O)N(C)S(=O)(=O)c2ccccc2)C(c2ccc(Cl)c(Cl)c2)n2nc(C(F)(F)F)cc2N1 (single isomer, unassigned) [Example 90 Isomer 1, 7-(3,4-Dichlorophenyl)-N,5-dimethyl-N-(phenylsulfonyl)-2-(trifluoromethyl)-4,7-dihydropyrazolo[1,5-a]pyrimidine-6-carboxamide]	37	–	–
CCCS(=O)(=O)N(C)C(=O)C1=C(C)Nc2cc(C(F)(F)F)nn2C1c1ccc(Cl)c(Cl)c1 (single isomer, unassigned) [Example 91 Isomer 1, 7-(3,4-Dichlorophenyl)-N,5-dimethyl-N-(propylsulfonyl)-2-(trifluoromethyl)-4,7-dihydropyrazolo[1,5-a]pyrimidine-6-carboxamide]	72	–	–

The next lines start with results.

inhibition at 0.3 µM [%]	Kv1.5% inhibition [%]	SMILES	further results
30	–	CC1=C(S(=O)(=O)N(C)c2ccccc2)C(c2ccc(Cl)c(Cl)c2)n2nc(C(F)(F)F)cc2N1 (single isomer, unassigned) [Example 63 Isomer 1, 7-(3,4-Dichlorophenyl)-N,5-dimethyl-N-phenyl-2-(trifluoromethyl)-4,7-dihydropyrazolo[1,5-a]pyrimidine-6-sulfonamide]	–
–	31	CC1=C(S(=O)(=O)N(C)c2ccccc2)C(c2ccc(Cl)c(Cl)c2)n2nc(C(F)(F)F)cc2N1 (single isomer, unassigned) [Example 63 Isomer 2, 7-(3,4-Dichlorophenyl)-N,5-dimethyl-N-phenyl-2-(trifluoromethyl)-4,7-dihydropyrazolo[1,5-a]pyrimidine-6-sulfonamide]	–
–	78	CC1=C(S(=O)(=O)N2CCCCC2)C(c2ccc(Cl)c(Cl)c2)n2nc(C(F)(F)F)cc2N1 (single isomer, unassigned) [Example 65 Isomer 2, 7-(3,4-Dichlorophenyl)-5-methyl-6-(piperidin-1-ylsulfonyl)-2-(trifluoromethyl)-4,7-dihydropyrazolo[1,5-a]pyrimidine]	–
40	–	CC1=C(S(=O)(=O)N2CCCC2)C(c2ccc(Cl)c(Cl)c2)n2nc(C)c(Cl)c2N1 (single isomer, unassigned) [Example 69 Isomer 1, 3-Chloro-7-(3,4-dichlorophenyl)-2,5-dimethyl-6-(pyrrolidin-1-ylsulfonyl)-4,7-dihydropyrazolo[1,5-a]pyrimidine]	–
–	40	CC1=C(S(=O)(=O)N2CCCC2)C(c2ccc(Cl)c(Cl)c2)n2nc(C)c(Cl)c2N1 (single isomer, unassigned) [Example 69 Isomer 2, 3-Chloro-7-(3,4-dichlorophenyl)-2,5-dimethyl-6-(pyrrolidin-1-ylsulfonyl)-4,7-dihydropyrazolo[1,5-a]pyrimidine]	–
–	25	CC1=C(C(=O)N(C)S(=O)(=O)c2ccccc2)C(c2ccc(Cl)c(Cl)c2)n2nc(C)cc2N1 (single isomer, unassigned) [Example 79 Isomer 1, 7-(3,4-Dichlorophenyl)-N,2,5-trimethyl-N-(phenylsulfonyl)-4,7-dihydropyrazolo[1,5-a]pyrimidine-6-carboxamide]	–
–	88	CC1=C(C(=O)N(C)S(=O)(=O)c2ccccc2)C(c2ccc(Cl)c(Cl)c2)n2nc(C)cc2N1 (single isomer, unassigned) [Example 79 Isomer 2, 7-(3,4-Dichlorophenyl)-N,2,5-trimethyl-N-(phenylsulfonyl)-4,7-dihydropyrazolo[1,5-a]pyrimidine-6-carboxamide]	–
–	37	CC1=C(C(=O)N(C)S(=O)(=O)c2ccc(F)cc2)C(c2ccc(Cl)c(Cl)c2)n2nc(C)cc2N1 (single isomer, unassigned) [Example 80 Isomer 1, 7-(3,4-Dichlorophenyl)-N-(4-fluorophenylsulfonyl)-N,2,5-trimethyl-4,7-dihydropyrazolo[1,5-a]pyrimidine-6-carboxamide]	–
–	85	CC1=C(C(=O)N(C)S(=O)(=O)c2ccc(F)cc2)C(c2ccc(Cl)c(Cl)c2)n2nc(C)cc2N1 (single isomer, unassigned) [Example 80 Isomer 2, 7-(3,4-Dichlorophenyl)-N-(4-fluorophenylsulfonyl)-N,2,5-trimethyl-4,7-dihydropyrazolo[1,5-a]pyrimidine-6-carboxamide]	–
–	7	CC1=C(C(=O)N2CCCCS2(=O)=O)C(c2ccc(Cl)c(Cl)c2)n2nc(C)cc2N1 (single isomer, unassigned) [Example 84 Isomer 2]	–
–	51	CC1=C(C(=O)N(C)S(=O)(=O)c2ccccc2)C(c2ccc(Cl)c(Cl)c2)n2nc(C(F)(F)F)cc2N1 (single isomer, unassigned) [Example 90 Isomer 2, 7-(3,4-Dichlorophenyl)-N,5-dimethyl-N-(phenylsulfonyl)-2-(trifluoromethyl)-4,7-dihydropyrazolo[1,5-a]pyrimidine-6-carboxamide]	–
–	52	CCCS(=O)(=O)N(C)C(=O)C1=C(C)Nc2cc(C(F)(F)F)nn2C1c1ccc(Cl)c(Cl)c1 (single isomer, unassigned) [Example 91 Isomer 2, 7-(3,4-Dichlorophenyl)-N,5-dimethyl-N-(propylsulfonyl)-2-(trifluoromethyl)-4,7-dihydropyrazolo[1,5-a]pyrimidine-6-carboxamide]	–
31	–	CCN(C(=O)C1=C(C)Nc2cc(C(F)(F)F)nn2C1c1ccc(Cl)c(Cl)c1)S(=O)(=O)c1ccc(Cl)cc1 (single isomer, unassigned) [Example 93 Isomer 1, N-(4-Chlorophenylsulfonyl)-7-(3,4-dichlorophenyl)-N-ethyl-5-methyl-2-(trifluoromethyl)-4,7-dihydropyrazolo[1,5-a]pyrimidine-6-carboxamide]	–
–	27	CCN(C(=O)C1=C(C)Nc2cc(C(F)(F)F)nn2C1c1ccc(Cl)c(Cl)c1)S(=O)(=O)c1ccc(Cl)cc1 (single isomer, unassigned) [Example 93 Isomer 2, N-(4-Chlorophenylsulfonyl)-7-(3,4-dichlorophenyl)-N-ethyl-5-methyl-2-(trifluoromethyl)-4,7-dihydropyrazolo[1,5-a]pyrimidine-6-carboxamide]	–
80	–	CC1=C(C(=O)N(C)S(=O)(=O)c2c(C)noc2C)C(c2ccc(Cl)c(Cl)c2)n2nc(C)cc2N1 (single isomer, unassigned) [Example 94 Isomer 1, 7-(3,4-Dichlorophenyl)-N-(3,5-dimethylisoxazol-4-ylsulfonyl)-N,2,5-trimethyl-4,7-dihydropyrazolo[1,5-a]pyrimidine-6-carboxamide]	–
